Laboratory results: PubChem BioAssay AID1963863 (Molecular Pharmacology Branch, DTP, NCI, 2024)

System: 931267-113-T-J1-PDC KRAS spheroid with HUVEC/MSC, viability
Test: Anticancer human tumor 931267-113-T-J1-PDC patient-derived colon adenocarcinoma cell line growth inhibition [KRAS2]
Settings: for IC50: curve of first compound; for viability, T/C: stronger effect = lower value
Method in brief: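 KRAS-mutant tumor cells were grown as spheroids with HUVEC endothelial cells and human MSCs as stroma. Targeted agents were tested alone and with KRAS pathway inhibitors. Doses started at or near clinical Cmax, or 10 microM, descending half-log.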

[1] = second compound 0.1 µM, first compound 0.000316 µM
[2] = second compound 0.1 µM, first compound 0.001 µM
[3] = second compound 0.1 µM, first compound 0.00316 µM
[4] = second compound 0.1 µM, first compound 0.01 µM
[5] = second compound 0.1 µM, first compound 0.0316 µM
[6] = second compound 0.316 µM, first compound 0.000316 µM
[7] = second compound 0.316 µM, first compound 0.001 µM
[8] = second compound 0.316 µM, first compound 0.00316 µM
[9] = second compound 0.316 µM, first compound 0.01 µM
[10] = second compound 0.316 µM, first compound 0.0316 µM
[11] = second compound 1 µM, first compound 0.000316 µM
[12] = second compound 1 µM, first compound 0.001 µM
[13] = second compound 1 µM, first compound 0.00316 µM
[14] = second compound 1 µM, first compound 0.01 µM
[15] = second compound 1 µM, first compound 0.0316 µM
[16] = second compound 3.16 µM, first compound 0.000316 µM
[17] = second compound 3.16 µM, first compound 0.001 µM
[18] = second compound 3.16 µM, first compound 0.00316 µM
[19] = second compound 3.16 µM, first compound 0.01 µM
[20] = second compound 3.16 µM, first compound 0.0316 µM
[21] = second compound 10 µM, first compound 0.000316 µM
[22] = second compound 10 µM, first compound 0.001 µM
[23] = second compound 10 µM, first compound 0.00316 µM
[24] = second compound 10 µM, first compound 0.01 µM
[25] = second compound 10 µM, first compound 0.0316 µM
[26] = second compound 0.1 µM, first compound 0.1 µM
[27] = second compound 0.316 µM, first compound 0.1 µM
[28] = second compound 1 µM, first compound 0.1 µM
[29] = second compound 3.16 µM, first compound 0.1 µM
[30] = second compound 10 µM, first compound 0.1 µM
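Also: compound exposure lasted 7 days before the readout.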
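For viability, T/C in this document: 100% = DMSO vehicle control viability.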

CC(=O)Nc1cccc(-n2c(=O)n(C3CC3)c(=O)c3c(Nc4ccc(I)cc4F)n(C)c(=O)c(C)c32)c1 + CC1OCC2(CCN(c3cnc(Sc4ccnc(N)c4Cl)c(N)n3)CC2)C1N
IC50 (second compound 0.1 µM): 8.08 nM | IC50 (second compound 0.316 µM): 9.27 nM | IC50 (second compound 1 µM): 3.37 nM | IC50 (second compound 3.16 µM): 0.951 nM | IC50 (second compound 10 µM): 0.274 nM | viability, T/C (second compound 0.1 µM, first compound 0.0001 µM): 92% | viability, T/C [1]: 81.6% | viability, T/C [2]: 68.2% | viability, T/C [3]: 56.1% | viability, T/C [4]: 62.2% | viability, T/C [5]: 20.1% | viability, T/C (second compound 0.316 µM, first compound 0.0001 µM): 60.2% | viability, T/C [6]: 54.3% | viability, T/C [7]: 71.8% | viability, T/C [8]: 48.9% | viability, T/C [9]: 51.7% | viability, T/C [10]: 7.58% | viability, T/C (second compound 1 µM, first compound 0.0001 µM): 67.7% | viability, T/C [11]: 69.5% | viability, T/C [12]: 53.9% | viability, T/C [13]: 50.8% | viability, T/C [14]: 37.7% | viability, T/C [15]: 6.56% | viability, T/C (second compound 3.16 µM, first compound 0.0001 µM): 59.7% | viability, T/C [16]: 61.5% | viability, T/C [17]: 46.9% | viability, T/C [18]: 38.7% | viability, T/C [19]: 26.9% | viability, T/C [20]: 7.86% | viability, T/C (second compound 10 µM, first compound 0.0001 µM): 60.8% | viability, T/C [21]: 47.9% | viability, T/C [22]: 31.8% | viability, T/C [23]: 35% | viability, T/C [24]: 12.3% | viability, T/C [25]: 2.06%

CC(C)n1nc(-c2ccc3oc(N)nc3c2)c2c(N)ncnc21 + CC1OCC2(CCN(c3cnc(Sc4ccnc(N)c4Cl)c(N)n3)CC2)C1N
IC50 (second compound 0.1 µM): 4.38 nM | IC50 (second compound 0.316 µM): 3.13 nM | IC50 (second compound 1 µM): 3.53 nM | IC50 (second compound 3.16 µM): 3.6 nM | IC50 (second compound 10 µM): 7.13 nM | viability, T/C [1]: 90% | viability, T/C [2]: 81.6% | viability, T/C [3]: 49.5% | viability, T/C [4]: 42.8% | viability, T/C [5]: 27.6% | viability, T/C [26]: 26.1% | viability, T/C [6]: 85.2% | viability, T/C [7]: 76.3% | viability, T/C [8]: 44.7% | viability, T/C [9]: 34.9% | viability, T/C [10]: 19.9% | viability, T/C [27]: 16.7% | viability, T/C [11]: 79.7% | viability, T/C [12]: 66.9% | viability, T/C [13]: 51.3% | viability, T/C [14]: 36.8% | viability, T/C [15]: 25.7% | viability, T/C [28]: 18.7% | viability, T/C [16]: 68.4% | viability, T/C [17]: 64.1% | viability, T/C [18]: 46.1% | viability, T/C [19]: 43.9% | viability, T/C [20]: 27% | viability, T/C [29]: 15.6% | viability, T/C [21]: 66.5% | viability, T/C [22]: 77.7% | viability, T/C [23]: 62.2% | viability, T/C [24]: 45.3% | viability, T/C [25]: 19.9% | viability, T/C [30]: 22.5%

CC1(C)CCC(CN2CCN(c3ccc(C(=O)NS(=O)(=O)c4ccc(NCC5CCOCC5)c([N+](=O)[O-])c4)c(Oc4cnc5[nH]ccc5c4)c3)CC2)=C(c2ccc(Cl)cc2)C1 + CC1OCC2(CCN(c3cnc(Sc4ccnc(N)c4Cl)c(N)n3)CC2)C1N
IC50 (second compound 0.1 µM): 1710 nM | IC50 (second compound 0.316 µM): 1640 nM | IC50 (second compound 1 µM): 1740 nM | IC50 (second compound 3.16 µM): 1670 nM | IC50 (second compound 10 µM): 1660 nM | viability, T/C [5]: 104% | viability, T/C [26]: 84.1% | viability, T/C (second compound 0.1 µM, first compound 0.316 µM): 87.8% | viability, T/C (second compound 0.1 µM, first compound 1 µM): 75.7% | viability, T/C (second compound 0.1 µM, first compound 3.16 µM): 20.9% | viability, T/C (second compound 0.1 µM, first compound 10 µM): 8.53% | viability, T/C [10]: 91% | viability, T/C [27]: 81.3% | viability, T/C (second compound 0.316 µM, first compound 0.316 µM): 73.2% | viability, T/C (second compound 0.316 µM, first compound 1 µM): 72.8% | viability, T/C (second compound 0.316 µM, first compound 3.16 µM): 20.7% | viability, T/C (second compound 0.316 µM, first compound 10 µM): 3.06% | viability, T/C [15]: 84.9% | viability, T/C [28]: 75.9% | viability, T/C (second compound 1 µM, first compound 0.316 µM): 67.5% | viability, T/C (second compound 1 µM, first compound 1 µM): 81.3% | viability, T/C (second compound 1 µM, first compound 3.16 µM): 20.5% | viability, T/C (second compound 1 µM, first compound 10 µM): 1.45% | viability, T/C [20]: 61.1% | viability, T/C [29]: 77.8% | viability, T/C (second compound 3.16 µM, first compound 0.316 µM): 70.2% | viability, T/C (second compound 3.16 µM, first compound 1 µM): 70.6% | viability, T/C (second compound 3.16 µM, first compound 3.16 µM): 25% | viability, T/C (second compound 3.16 µM, first compound 10 µM): 0.6% | viability, T/C [25]: 83.7% | viability, T/C [30]: 77% | viability, T/C (second compound 10 µM, first compound 0.316 µM): 94.5% | viability, T/C (second compound 10 µM, first compound 1 µM): 85.9% | viability, T/C (second compound 10 µM, first compound 3.16 µM): 5.34% | viability, T/C (second compound 10 µM, first compound 10 µM): 0.28%
